Data: PMC5011342, “A high throughput drug screening assay to identify compounds that promote oligodendrocyte differentiation using acutely dissociated and purified oligodendrocyte precursor cells” (BMC Research Notes, 2016)
Read-outs that look alike come from different tables or passages of the source.

Columns and labels:
[1] = test system: acutely dissociated and purified rat OPCs; experiment: Acute OL differentiation assay (MBP expression/cell, immunofluorescent image quantification); assay type: cell-based; conditions: sheet "All OLga data"
Procedure, shortened: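 This acute differentiation assay used purified rat OPCs from postnatal day 6–7 pups, seeded into PDL/laminin-coated 96-well plates in differentiation medium lacking PDGF and FGF. Compounds were applied in quadruplicate after a 1–2 h preincubation at 37 °C, 10 % CO2, with 0.1 % DMSO negative and 40 ng/ml T3 positive controls in eight wells. After fixation on DIV4, anti-MBP immunofluorescence images yielded MBP expression/cell.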

[2] = test system: expanded OPCs; experiment: cells; conditions: for viability at 0.1 µM / viability at 1 µM / viability at 10 µM: Rattus norvegicus, 72 h
Procedure, shortened: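 Toxicity screen: compounds added at 0.1, 1 and 10 µM to PDGF-AA-expanded OPCs in 96-well plates, 3-day incubation at 37 °C, 10% CO2, then alamarBlue 1:10 for 4 h with fluorescence readout. Results set screening doses of 10/2, 2/0.4 or 0.4/0.08 µM.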

[3] = Rattus norvegicus, test compound at 2 uM, NCC library screen, relative to quetiapine, read-out: 2 uM (% Quet)
[4] = Rattus norvegicus, test compound at 10 uM, NCC library screen, relative to quetiapine, read-out: 10 uM (% Quet)
[5] = read-out: 0.1 µM (% DMSO), alamarBlue viability, NCC library compound at 0.1 µM, sheet "All Tox data"
[6] = read-out: 1 µM (% DMSO), alamarBlue viability, NCC library compound at 1 µM, sheet "All Tox data"
[7] = read-out: 10 µM (% DMSO), alamarBlue viability, NCC library compound at 10 µM, sheet "All Tox data"
[8] = alamarBlue viability of expanded OPCs, compound at 0.1 µM, relative to DMSO control
[9] = alamarBlue viability of expanded OPCs, compound at 1 µM, relative to DMSO control
[10] = alamarBlue viability of expanded OPCs, compound at 10 µM, relative to DMSO control
[11] = Rattus norvegicus, 2 uM test compound, relative to quetiapine, read-out: OL differentiation, 2 uM (% Quet)
[12] = Rattus norvegicus, 10 uM test compound, relative to quetiapine, read-out: OL differentiation, 10 uM (% Quet)
[13] = read-out: 0.1 µM (% DMSO), alamarBlue viability of expanded OPCs, compound at 0.1 µM, sheet All Tox data
[14] = read-out: 1 µM (% DMSO), alamarBlue viability of expanded OPCs, compound at 1 µM, sheet All Tox data
[15] = read-out: 10 µM (% DMSO), alamarBlue viability of expanded OPCs, compound at 10 µM, sheet All Tox data
[16] = Rattus norvegicus, test compound at 2 uM, MBP expression relative to quetiapine, NCC library screen, read-out: 2 uM (% Quet)
[17] = Rattus norvegicus, test compound at 10 uM, MBP expression relative to quetiapine, NCC library screen, read-out: 10 uM (% Quet)
[18] = Rattus norvegicus, 0.4 uM test compound, relative to quetiapine, read-out: OL differentiation, 0.4 uM (% Quet)

| SMILES | 0.1 µM (% DMSO) [2, 8] | 1 µM (% DMSO) [2, 9] | 10 µM (% DMSO) [2, 10] | activation at 2 µM [1, 11] | activation at 10 µM [1, 12] | viability at 0.1 µM [2, 13] | viability at 1 µM [2, 14] | viability at 10 µM [2, 15] | activation at 2 µM [1, 16] | activation at 10 µM [1, 17] | further results |
| --- | --- | --- | --- | --- | --- | --- | --- | --- | --- | --- | --- |
| CC(=O)[C@H]1CC[C@H]2[C@@H]3C[C@H](C)C4=CC(=O)CC[C@]4(C)[C@H]3[C@@H](O)C[C@]12C [Medrysone] | – | – | – | – | – | – | – | – | – | – | activation at 2 µM [1, 3]: -6%; activation at 10 µM [1, 4]: -16.5%; viability at 0.1 µM [2, 5]: 130%; viability at 1 µM [2, 6]: 125%; viability at 10 µM [2, 7]: 121% |
| Cc1cccc(Nc2ccccc2C(=O)O)c1C [Mefenamic Acid] | 92.7 % DMSO | 91.8 % DMSO | 83.6 % DMSO | – | – | – | – | – | – | – | activation at 2 µM [1, 3]: -4%; activation at 10 µM [1, 4]: -22.3% |
| OC(c1cc(C(F)(F)F)nc2c(C(F)(F)F)cccc12)C1CCCCN1 (stereo not shown) [Mefloquine] | 39.0 % DMSO | 11.0 % DMSO | 7.4 % DMSO | – | – | – | – | – | – | – | activation at 0.08 µM ([1]; Rattus norvegicus, test compound at 0.08 uM, MBP expression relative to quetiapine, NCC library screen, read-out: 0.08 uM (% Quet)): -20.5%; activation at 0.4 µM ([1]; Rattus norvegicus, test compound at 0.4 uM, MBP expression relative to quetiapine, NCC library screen, read-out: 0.4 uM (% Quet)): -134% |
| CC(=O)O[C@]1(C(C)=O)CC[C@H]2[C@@H]3C=C(C)C4=CC(=O)CC[C@]4(C)[C@H]3CC[C@@]21C [Megestrol acetate] | – | – | – | -21.6% | -29.4% | 97.2% | 89.3% | 96.5% | – | – | – |
| Cc1cnc(NC(=O)C2=C(O)c3ccccc3S(=O)(=O)N2C)s1 [Meloxicam] | 93.1 % DMSO | 94.6 % DMSO | 86.1 % DMSO | – | – | – | – | – | -8.5% | 1.4% | – |
| CC1CCN(CCCC(=O)c2ccc(F)cc2)CC1.Cl [Melperone hydrochloride] | – | – | – | – | – | – | – | – | – | – | 2 uM (% Quet) ([1]; test compound at 2 uM, NCC library screen, relative to quetiapine): 39.6 % Quet; 10 uM (% Quet) ([1]; test compound at 10 uM, NCC library screen, relative to quetiapine): 43.4 % Quet; 0.1 µM (% DMSO) ([2]; alamarBlue viability, NCC library compound at 0.1 µM, sheet "All Tox data"): 105.5 % DMSO; 1 µM (% DMSO) ([2]; alamarBlue viability, NCC library compound at 1 µM, sheet "All Tox data"): 130.9 % DMSO; 10 µM (% DMSO) ([2]; alamarBlue viability, NCC library compound at 10 µM, sheet "All Tox data"): 151.7 % DMSO |
| CC12CC3CC(C)(C1)CC(N)(C3)C2 [Memantine] | 93.3 % DMSO | 84.1 % DMSO | 67.0 % DMSO | -9.2% | -28.3% | 97.8% | 93.2% | 59.7% | -64.4% | -100% | – |
| Cc1cccc(C)c1NC(=O)C1CCCCN1C (stereo not shown) [Mepivacaine] | – | – | – | – | – | – | – | – | – | – | activation at 2 µM [1, 3]: -6.4%; activation at 10 µM [1, 4]: -0.9%; viability at 0.1 µM [2, 5]: 89.5%; viability at 1 µM [2, 6]: 89.9%; viability at 10 µM [2, 7]: 79.7% |
| Sc1ncnc2nc[nH]c12 [Mercaptopurine] | 92.3 % DMSO | 92.7 % DMSO | 95.9 % DMSO | – | – | – | – | – | 3.6% | -5.6% | – |
| C[C@@H](O)[C@H]1C(=O)N2C(C(=O)O)=C(S[C@@H]3CN[C@H](C(=O)N(C)C)C3)[C@H](C)[C@H]12 [Meropenem] | – | – | – | -4.2% | 2.8% | 95.8% | 98.1% | 102% | – | – | – |
| Nc1ccc(O)c(C(=O)O)c1 [Mesalamine] | – | – | – | -9.1% | -0.34% | 86.2% | 92.2% | 87.2% | – | – | – |
| O=S(=O)(O)CCS [Mesna] | 92.5 % DMSO | 91.3 % DMSO | 100.9 % DMSO | – | – | – | – | – | -46% | -38.6% | – |
| CN1CCCCC1CCN1c2ccccc2Sc2ccc([S+](C)[O-])cc21 (stereo not shown) [Mesoridazine] | – | – | – | -3.1% | – | 82.1% | 76.6% | 28.3% | – | – | activation at 0.4 µM [1, 18]: 6.6% |
| C[C@]12CCC(=O)C[C@@H]1CC[C@@H]1[C@@H]2CC[C@@]2(C)[C@H]1CC[C@]2(C)O [Mestanolone] | – | – | – | 0.8% | -18% | 102% | 94.1% | 120% | – | – | – |
| C#C[C@]1(O)CC[C@H]2[C@@H]3CCc4cc(OC)ccc4[C@H]3CC[C@@]21C [Mestranol] | – | – | – | 92.5% | -6.7% | – | – | – | – | – | viability at 0.1 µM [2, 5]: 102%; viability at 1 µM [2, 6]: 103%; viability at 10 µM [2, 7]: 114% |
| CC(C)NCC(O)c1cc(O)cc(O)c1 (stereo not shown) [Metaproterenol] | 89.2 % DMSO | 91.6 % DMSO | 91.1 % DMSO | – | – | – | – | – | -0.7% | 3.5% | – |
| C[C@]12CC[C@H](O)CC1=CC[C@@H]1[C@@H]2CC[C@@]2(C)[C@H]1CC[C@]2(C)O [Methandriol] | – | – | – | 4.1% | -0.6% | 91.2% | 87.5% | 88% | – | – | – |
| CC(=O)/N=c1/sc(S(N)(=O)=O)nn1C [Methazolamide] | 90.9 % DMSO | 92.5 % DMSO | 88.3 % DMSO | – | – | – | – | – | -29% | -40% | – |
| Cn1cc[nH]c1=S [Methimazole] | 88.3 % DMSO | 90.9 % DMSO | 85.4 % DMSO | – | – | – | – | – | -0.16% | -20.4% | – |
| COc1ccccc1OCC(O)COC(N)=O (stereo not shown) [Methocarbamol] | 89.9 % DMSO | 92.3 % DMSO | 88.1 % DMSO | – | – | – | – | – | – | – | activation at 2 µM [1, 3]: 2.8%; activation at 10 µM [1, 4]: -3.7% |
| CN(Cc1cnc2nc(N)nc(N)c2n1)c1ccc(C(=O)N[C@@H](CCC(=O)O)C(=O)O)cc1 [Methotrexate] | – | – | – | 4.9% | – | 77.9% | 68.5% | 52.8% | – | – | activation at 0.4 µM [1, 18]: -11% |
| COc1c2occc2cc2ccc(=O)oc12 [Methoxsalen] | 88.8 % DMSO | 90.5 % DMSO | 85.4 % DMSO | – | – | – | – | – | -13.9% | -33.3% | – |
